# Source: ChEMBL document CHEMBL5113502, “Accommodation of ring C expanded deoxyvasicinone in the HDAC inhibitory pharmacophore culminates into a tractable anti-lung cancer agent and pH-responsive nanocarrier” (Eur J Med Chem, 2022)
# Active and inactive are the calls of the source. No cut-off for these calls is given here.
# Experiments:
# NCI-H727 = experiment: Cytotoxicity against human NCI-H727 cells assessed as cell viability after 48 hrs by MTT assay; assay type: functional, cell-based; details: NCI-H727, 48 h
# A549 [1] = experiment: Induction of apoptosis in human A549 cells assessed as […] deformation at 0.1 to 1 uM after 24 hrs by fluorescence microscopic analysis; assay type: functional, cell-based; details: dose 0.1-1 µM
# A549 [2] = experiment: Induction of autophagy in human A549 cells by acridine orange and propidium iodide staining based fluorescence microscopic analysis; assay type: functional, cell-based; details: DDE = dose-dependent effect
# Histone deacetylase 5 = Histone deacetylase 5 (Homo sapiens, UniProt Q9UQL6); experiment: Inhibition of HDAC5 (unknown origin) by colorimetric method
# [3] = target: T1, Protein deacetylase HDAC6 (Homo sapiens, UniProt Q9UBN7); experiment: Inhibition of HDAC6 (unknown origin) by colorimetric method
# T1 sequence (Q9UBN7 whole entry): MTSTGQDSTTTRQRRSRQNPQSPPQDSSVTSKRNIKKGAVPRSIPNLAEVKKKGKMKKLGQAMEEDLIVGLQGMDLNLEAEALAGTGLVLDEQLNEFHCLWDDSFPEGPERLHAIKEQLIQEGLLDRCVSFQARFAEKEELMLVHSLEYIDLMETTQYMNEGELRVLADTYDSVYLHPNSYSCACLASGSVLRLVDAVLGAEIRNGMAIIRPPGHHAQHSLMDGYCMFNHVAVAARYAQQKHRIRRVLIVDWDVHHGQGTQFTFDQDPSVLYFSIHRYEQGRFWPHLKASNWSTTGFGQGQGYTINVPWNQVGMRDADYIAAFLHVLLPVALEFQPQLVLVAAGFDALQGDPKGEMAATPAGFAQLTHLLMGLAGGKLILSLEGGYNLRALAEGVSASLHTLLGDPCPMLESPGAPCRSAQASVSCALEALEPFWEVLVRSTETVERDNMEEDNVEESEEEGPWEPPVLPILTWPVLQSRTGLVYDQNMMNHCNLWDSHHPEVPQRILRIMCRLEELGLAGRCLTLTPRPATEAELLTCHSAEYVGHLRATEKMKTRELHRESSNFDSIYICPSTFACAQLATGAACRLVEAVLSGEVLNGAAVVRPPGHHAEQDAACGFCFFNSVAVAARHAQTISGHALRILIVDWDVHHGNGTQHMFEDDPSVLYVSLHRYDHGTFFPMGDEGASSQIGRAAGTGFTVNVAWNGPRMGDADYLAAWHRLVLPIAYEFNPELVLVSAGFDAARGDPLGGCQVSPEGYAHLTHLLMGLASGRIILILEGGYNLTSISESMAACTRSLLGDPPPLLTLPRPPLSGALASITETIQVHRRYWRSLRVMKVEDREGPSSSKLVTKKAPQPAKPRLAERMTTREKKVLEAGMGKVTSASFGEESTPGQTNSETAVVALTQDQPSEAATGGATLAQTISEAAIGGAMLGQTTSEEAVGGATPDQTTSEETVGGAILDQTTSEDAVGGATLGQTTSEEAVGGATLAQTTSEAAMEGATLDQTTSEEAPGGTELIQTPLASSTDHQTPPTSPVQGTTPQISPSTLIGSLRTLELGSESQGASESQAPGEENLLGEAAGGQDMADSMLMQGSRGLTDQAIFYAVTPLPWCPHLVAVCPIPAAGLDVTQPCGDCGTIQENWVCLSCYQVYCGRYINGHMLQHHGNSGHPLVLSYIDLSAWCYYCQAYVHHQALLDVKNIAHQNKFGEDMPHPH
# Homo sapiens [4] = species: Homo sapiens; experiment: Selectivity index, ratio of IC50 for HDAC3 (unknown origin) to IC50 for HDAC 6 (unknown origin)
# Homo sapiens [5] = species: Homo sapiens; experiment: Selectivity index, ratio of IC50 for HDAC8 (unknown origin) to IC50 for HDAC 6 (unknown origin)
# Homo sapiens [6] = species: Homo sapiens; experiment: Selectivity index, ratio of IC50 for HDAC9 (unknown origin) to IC50 for HDAC 6 (unknown origin)
# Homo sapiens [7] = species: Homo sapiens; experiment: Selectivity index, ratio of IC50 for HDAC 1 (unknown origin) to IC50 for HDAC 3 (unknown origin)
# Homo sapiens [8] = species: Homo sapiens; experiment: Selectivity index, ratio of IC50 for HDAC 2 (unknown origin) to IC50 for HDAC 3 (unknown origin)
# Homo sapiens [9] = species: Homo sapiens; experiment: Selectivity index, ratio of IC50 for HDAC 4 (unknown origin) to IC50 for HDAC 3 (unknown origin)
# Homo sapiens [10] = species: Homo sapiens; experiment: Selectivity index, ratio of IC50 for HDAC 5 (unknown origin) to IC50 for HDAC 3 (unknown origin)
# Homo sapiens [11] = species: Homo sapiens; experiment: Selectivity index, ratio of IC50 for HDAC 7 (unknown origin) to IC50 for HDAC 3 (unknown origin)
# Homo sapiens [12] = species: Homo sapiens; experiment: Selectivity index, ratio of IC50 for HDAC 9 (unknown origin) to IC50 for HDAC 3 (unknown origin)
# Homo sapiens [13] = species: Homo sapiens; experiment: Selectivity index, ratio of IC50 for HDAC 3 (unknown origin) to IC50 for HDAC 1 (unknown origin)
# Homo sapiens [14] = species: Homo sapiens; experiment: Selectivity index, ratio of IC50 for HDAC 4 (unknown origin) to IC50 for HDAC 1 (unknown origin)
# Homo sapiens [15] = species: Homo sapiens; experiment: Selectivity index, ratio of IC50 for HDAC7 (unknown origin) to IC50 for HDAC 1 (unknown origin)
# Homo sapiens [16] = species: Homo sapiens; experiment: Selectivity index, ratio of IC50 for HDAC8 (unknown origin) to IC50 for HDAC 1 (unknown origin)
# A549 [17] = experiment: Downregulation of HDAC3 expression in human A549 cells at 0.1 to 1 uM after 24 hrs by Western blot analysis; assay type: functional, cell-based; details: dose 0.1-1 µM
# A549 [18] = experiment: Downregulation of HDAC6 expression in human A549 cells at 0.1 to 1 uM after 24 hrs by Western blot analysis; assay type: functional, cell-based; details: dose 0.1-1 µM
# A549 [19] = experiment: Inhibition of HDAC1/HDAC3/HDAC6 in human A549 cells assessed as increase in alpha-tubulin-ack40 level by Western blot analysis; assay type: cell-based
# Histone deacetylase 5, sequence (Q9UQL6 whole entry): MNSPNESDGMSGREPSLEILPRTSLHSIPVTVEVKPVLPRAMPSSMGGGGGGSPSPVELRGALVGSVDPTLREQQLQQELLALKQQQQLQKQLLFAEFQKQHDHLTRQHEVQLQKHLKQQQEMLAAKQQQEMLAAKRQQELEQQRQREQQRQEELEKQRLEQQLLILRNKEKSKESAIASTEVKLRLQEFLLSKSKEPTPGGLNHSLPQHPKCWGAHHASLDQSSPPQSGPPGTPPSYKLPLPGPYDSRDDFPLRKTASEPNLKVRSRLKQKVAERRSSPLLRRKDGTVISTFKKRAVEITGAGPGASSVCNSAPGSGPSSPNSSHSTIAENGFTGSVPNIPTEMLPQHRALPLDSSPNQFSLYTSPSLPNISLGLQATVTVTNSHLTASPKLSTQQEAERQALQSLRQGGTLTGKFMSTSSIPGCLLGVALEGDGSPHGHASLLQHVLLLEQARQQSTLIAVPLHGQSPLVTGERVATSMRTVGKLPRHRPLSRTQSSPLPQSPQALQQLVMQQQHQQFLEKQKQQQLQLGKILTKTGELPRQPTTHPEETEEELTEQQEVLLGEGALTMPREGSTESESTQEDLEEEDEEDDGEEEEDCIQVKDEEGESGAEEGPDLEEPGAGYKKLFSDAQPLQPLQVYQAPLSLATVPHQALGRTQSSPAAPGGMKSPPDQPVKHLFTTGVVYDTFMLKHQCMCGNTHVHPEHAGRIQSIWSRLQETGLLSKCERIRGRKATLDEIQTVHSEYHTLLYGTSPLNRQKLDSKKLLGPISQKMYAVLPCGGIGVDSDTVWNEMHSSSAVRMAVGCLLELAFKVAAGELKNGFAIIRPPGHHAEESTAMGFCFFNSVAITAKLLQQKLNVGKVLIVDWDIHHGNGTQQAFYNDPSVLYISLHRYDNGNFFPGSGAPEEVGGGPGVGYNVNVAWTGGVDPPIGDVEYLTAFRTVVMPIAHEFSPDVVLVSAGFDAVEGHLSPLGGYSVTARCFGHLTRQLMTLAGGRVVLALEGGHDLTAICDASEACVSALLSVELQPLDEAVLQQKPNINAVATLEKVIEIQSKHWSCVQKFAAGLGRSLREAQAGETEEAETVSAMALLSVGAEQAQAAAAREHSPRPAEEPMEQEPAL
compound,measurement,setting,value
O=C(/C=C/c1ccc(CNc2ccc3nc4n(c(=O)c3c2)CCCCC4)cc1)NO,IC50,NCI-H727,960 nM
same,Activity,A549 [1],Active
same,Activity,A549 [2],Dde
same,IC50,Histone deacetylase 5,617 nM
same,IC50,[3],12.9 nM
same,Ratio IC50,Homo sapiens [4],5.31
same,Ratio IC50,Homo sapiens [5],13.7
same,Ratio IC50,Homo sapiens [6],335
same,Ratio IC50,Homo sapiens [7],0.72
same,Ratio IC50,Homo sapiens [8],18.4
same,Ratio IC50,Homo sapiens [9],23.8
same,Ratio IC50,Homo sapiens [10],9.01
same,Ratio IC50,Homo sapiens [11],59.6
same,Ratio IC50,Homo sapiens [12],63.1
same,Ratio IC50,Homo sapiens [13],1.37
same,Ratio IC50,Homo sapiens [14],32.7
same,Ratio IC50,Homo sapiens [15],81.8
same,Ratio IC50,Homo sapiens [16],3.56
same,inhibition,A549 [17],Active
same,inhibition,A549 [18],Active
same,inhibition,A549 [19],Active
